Measured values from patent US20250172542A1, “METHOD FOR INDUCING ARTIFICIAL AGEING IN A STEM CELL AND USES OF SAID CELL” (Clock Bio Limited, priority 2022, published 2025).

What was measured:
Bob NGN2 and Bob N2P iNs = test: RT-PCR of neuronal markers in iNeurons treated with or without cumate; assay type: cell-based, human; settings: RT-PCR relative to PBGD1
Procedure: (§1) NGN2 and NGN2-Progerin iPSCs were dissociated into single cells with Accutase and plated onto PDL/Geltrex coated dishes at a density of 30K cells per cm^2. Forward programming was initiated 24 hours after the split. The induction was performed in DMEM/F-12 supplemented with Glutamax (100×), Non-Essential Amino Acids (100×), 50 μM 2-Mercaptoethanol (Gibco), 1% Penicillin/Streptomycin, 1 μg/mL Dox. After 2 days of induction, the medium was switched to Neurobasal-medium supplemented with Glutamax (100×), B27 (50×), 10 ng/mL BDNF (Peprotech), 10 ng/mL NT3 (R&D Systems), 1% Penicillin/Streptomycin, and 1 μg/mL Dox. In order to age NGN2-Progerin iNeurons (iNs), at D7 post induction, cumate was added to the medium for 7 days. Pre-aged iNs were induced as described above from 5 days aged NGN-Progerin iPSCs, no additional cumate was added during the induction process.
cDNA synthesis was performed with the Maxima First Strand cDNA Synthesis Kit (Thermo Fisher Scientific). PowerUp SYBR Green Master Mix (Thermo Fisher Scientific) was used for RT-PCR. Samples were run on the QuantStudio 6 Flex Real-Timer PCR System machine (Applied Biosystems). All samples were analysed in technical duplicates and normalised to the house-keeping gene Porphobilinogen Deaminase 1 (PBGD1). Results were analysed with the ΔΔCt method. […]

[1] = system: GFP-Progerin expression under the cumate switch (CymR/CuO); test: Cumate dose response assay (GFP-Progerin expression in iNeurons); assay type: cell-based, human; settings: neurons induced with doxycycline and cumate
Procedure: as §1
In order to allow for a separate control of NGN2 and progerin expression, the OPTi-OX technology was used and a dual system designed which is based on both the TetOn (Baron and Bujard (2000)) and the cumate switch (Mullick et al. (2006); Sato et al. (2020); and Seo and Schmidt-Dannert (2019)) inducible systems. This new system was referred to as (Opti-OX)^2. The cumate repressor (CymR) was first cloned into the original ROSA26 targeting vector, linked by a 2A sequence to rtTA (FIGS. 7A-F). […]

With CC(C)c1ccc(C(=O)O)cc1 [cumate] the “effect of cumate itself on gene expression (MAP2 and synapsin-1 downregulation)” value (Bob NGN2 and Bob N2P iNs) was “not responsible for the changes seen in gene expression” and the “GFP expression as a function of cumate dose” value [1] was “titrated by adjusting the dose”.
